Experimental data published in patent publication US5441941A, “1,2-dihydroellipticines with activity against CNS specific cancer” (The United States of America as represented by the …, priority 1993, dated 1995).

Assays:
LOX IMVI = test: NCI in vitro screen, SRB percent growth, Melanoma
DLD-1 = test: cells; details: Homo sapiens
SF-268 = test: NCI in vitro screen, SRB percent growth, CNS Cancer
OVCAR-8 = test: NCI in vitro screen, SRB percent growth, Ovarian Cancer
MOLT-4 = test: cells; details: Homo sapiens
SK-OV-3 = test: NCI in vitro screen, SRB percent growth, Ovarian Cancer
KM20L2 = test: cells; details: Homo sapiens
RPMI-8226 = test: cells; details: Homo sapiens
UACC-62 = test: NCI in vitro screen, SRB percent growth, Melanoma; details: Log10 Concentration -4.0; 100 µM
[1] = Log10 Concentration -4.0, 100 µM
[2] = Log10 Concentration -7.0, 0.1 µM
[3] = DLD-1, read-out: Percent Growth
[4] = MOLT-4, read-out: Percent Growth
[5] = KM-20L2, read-out: Percent Growth
[6] = RPMI-8226, read-out: Percent Growth

## Cc1ccc2[nH]c3c(C)c4c(c(C)c3c2c1)CN(C)C=C4 [Formula XI]
LOX IMVI; [1]
  Percent Growth: -81%
LOX IMVI; Log10 Concentration -5.0
  Percent Growth: 26%
LOX IMVI; Log10 Concentration -6.0, 1 µM
  Percent Growth: 82%
LOX IMVI; [2]
  Percent Growth: 94%
LOX IMVI; Log10 Concentration -8.0
  Percent Growth: 98%
LOX IMVI; PG=0
  TGI: 17.4 µM
LOX IMVI; PG=+50
  GI50: 3.67 µM
LOX IMVI; read-out: LC-50, PG=-50
  CC50: 51.4 µM
DLD-1; DLD-1
  GI50: 1.48 µM
DLD-1; DLD-1, read-out: LC-50
  CC50: 59 µM
DLD-1; [3]
  activity at 0.01 µM: 102%
  activity at 0.1 µM: 93%
  activity at 1 µM: 58%
  activity at 10 µM: 13%
  activity at 100 µM: -69%
DLD-1; DLD-1, read-out: TGI
  IC (TGI): 14.5 µM
SF-268; [1]
  Percent Growth: -83%
SF-268; Log10 Concentration -5.0
  Percent Growth: -94%
SF-268; Log10 Concentration -6.0, 1 µM
  Percent Growth: -39%
SF-268; [2]
  Percent Growth: 96%
SF-268; Log10 Concentration -8.0
  Percent Growth: 101%
SF-268; PG=0
  TGI: 0.514 µM
SF-268; PG=+50
  GI50: 0.218 µM
SF-268; read-out: LC-50, PG=-50
  CC50: 1.6 µM
OVCAR-8; [1]
  Percent Growth: -95%
OVCAR-8; Log10 Concentration -5.0
  Percent Growth: -5%
OVCAR-8; Log10 Concentration -6.0, 1 µM
  Percent Growth: 37%
OVCAR-8; [2]
  Percent Growth: 81%
OVCAR-8; Log10 Concentration -8.0
  Percent Growth: 89%
OVCAR-8; PG=0
  TGI: 7.69 µM
OVCAR-8; PG=+50
  GI50: 0.516 µM
OVCAR-8; read-out: LC-50, PG=-50
  CC50: 31.8 µM
MOLT-4; MOLT-4
  GI50: 2.14 µM
MOLT-4; MOLT-4, read-out: LC-50
  CC50: > 100 µM
MOLT-4; [4]
  activity at 0.01 µM: 104%
  activity at 0.1 µM: 101%
  activity at 1 µM: 68%
  activity at 10 µM: 14%
  activity at 100 µM: -50%
MOLT-4; MOLT-4, read-out: TGI
  IC (TGI): 16.5 µM
SK-OV-3; [1]
  Percent Growth: -58%
SK-OV-3; Log10 Concentration -5.0
  Percent Growth: -16%
SK-OV-3; Log10 Concentration -6.0, 1 µM
  Percent Growth: 36%
SK-OV-3; [2]
  Percent Growth: 59%
SK-OV-3; Log10 Concentration -8.0
  Percent Growth: 87%
SK-OV-3; PG=0
  TGI: 4.87 µM
SK-OV-3; PG=+50
  GI50: 0.25 µM
SK-OV-3; read-out: LC-50, PG=-50
  CC50: 63.3 µM
KM20L2; KM-20L2
  GI50: 2.22 µM
KM20L2; KM-20L2, read-out: LC-50
  CC50: 38 µM
KM20L2; [5]
  activity at 0.01 µM: 106%
  activity at 0.1 µM: 95%
  activity at 1 µM: 73%
  activity at 10 µM: 7%
  activity at 100 µM: -91%
KM20L2; KM-20L2, read-out: TGI
  IC (TGI): 11.7 µM
RPMI-8226; RPMI-8226
  GI50: 6.81 µM
RPMI-8226; RPMI-8226, read-out: LC-50
  CC50: > 100 µM
RPMI-8226; [6]
  activity at 0.01 µM: 109%
  activity at 0.1 µM: 106%
  activity at 1 µM: 103%
  activity at 10 µM: 39%
  activity at 100 µM: -27%
RPMI-8226; RPMI-8226, read-out: TGI
  IC (TGI): 39.3 µM
UACC-62
  Percent Growth: -84%
